Legend:
[1] = tested on: control sera (pooled serum of ten healthy LUMC hospital workers; commercial negative donor pooled serum from the Dutch bloodbank); type: binding, human; design: Binding of Control serum LUMC to linear peptides / Binding of Control serum Blood-bank to linear peptides / Binding of Control serum LUMC to looped peptides / Binding of Control Serum Blood-Bank to Looped peptides / Binding of Control serum LUMC to linear peptides of the protein M of SARS-CoV Urbani / Binding of Control serum Blood-bank to linear peptides of the protein M of SARS-CoV Urbani / Binding of Control serum LUMC to looped peptides of the protein M of SARS-CoV Urbani / Binding of Control Serum Blood-Bank to Looped peptides of the protein M of SARS-CoV Urbani: unit not given here
[2] = tested on: rabbit serum obtained by immunizing a rabbit with the SARS-CoV strain Frankfurt 1; type: binding; design: Binding of a rabbit serum to linear peptides / Binding of a rabbit serum to looped peptides / Rabbit serum linear peptides / Rabbit serum looped peptides / Binding of a rabbit serum to linear peptides of protein N of SARS-CoV Urbani (Rabbit serum linear peptides) / Binding of a rabbit serum to looped/cyclic peptides of protein N of SARS-CoV Urbani (Rabbit serum looped peptides): unit not given here
[3] = tested on: recombinant human anti-SARS-CoV antibody 03-018; type: binding; design: Binding of antibody 03-018 to linear peptides of the N protein of SARS-CoV Urbani / Binding of antibody 03-018 to looped/cyclic peptides of the N protein of SARS-CoV Urbani: unit not given here
[4] = tested on: antibodies in sera from SARS patients (sera 1a, 1b, 2, 6, 37, 62, London, SARS-yellow, SARS-green); type: binding, human; design: Binding of serum 6 to linear peptides of protein X1 of SARS-CoV Urbani / Binding of serum 37 to linear peptides of protein X1 of SARS-CoV Urbani / Binding of serum 6 to looped/cyclic peptide (PEPSCAN-ELISA) / Binding of serum 37 to looped/cyclic peptide (PEPSCAN-ELISA) / Binding of serum 37 to looped/cyclic peptides of protein X1 of SARS-CoV Urbani / Binding of serum 6 to linear peptides of protein X2 / Binding of serum 37 to linear peptides of protein X2 / Binding of serum 37 to looped/cyclic peptides of protein X2 of SARS-CoV Urbani / Binding of serum 6 to linear peptides of protein M of SARS-CoV Urbani / Binding of serum 37 to linear peptides of protein M of SARS-CoV Urbani / Binding of serum 6 to looped/cyclic peptides of protein M of SARS-CoV Urbani / Binding of serum 37 to looped/cyclic peptides of protein M of SARS-CoV Urbani / Binding of serum 6 to linear peptides of protein X3 of SARS-CoV Urbani / Binding of serum 37 to linear peptides of protein X3 of SARS-CoV Urbani / Binding of serum 37 to looped/cyclic peptides of protein X3 of SARS-CoV Urbani / Binding of serum 6 to linear peptides of protein X4 of SARS-CoV Urbani / Binding of serum 37 to linear peptides of protein X4 of SARS-CoV Urbani / Binding of serum 37 to looped/cyclic peptides of protein X4 of SARS-CoV Urbani / Binding of serum 6 to linear peptides of protein X5 of SARS-CoV Urbani / Binding of serum 37 to linear peptides of protein X5 of SARS-CoV Urbani / Binding of serum 37 to looped/cyclic peptides of protein X5 of SARS-CoV Urbani / Binding of serum 6 to linear peptides of protein N of SARS-CoV Urbani / Binding of serum 37 to linear peptides of protein N of SARS-CoV Urbani / Binding of serum 6 to linear peptide (PEPSCAN-ELISA) / Binding of serum 1a to looped/cyclic peptides of protein N of SARS-CoV Urbani / Binding of serum 1b to looped/cyclic peptides of protein N of SARS-CoV Urbani / Binding of serum 2 to looped/cyclic peptides of protein N of SARS-CoV Urbani / Binding of serum 6 to looped/cyclic peptides of protein N of SARS-CoV Urbani / Binding of serum 37 to looped/cyclic peptides of protein N of SARS-CoV Urbani / Binding of serum 62 to looped/cyclic peptides of protein N of SARS-CoV Urbani / Binding of serum London to looped/cyclic peptides of protein N of SARS-CoV Urbani / Binding of serum SARS-green to looped/cyclic peptides of protein N of SARS-CoV Urbani: unit not given here

ASGGGETALALLLLD
Binding of Control Serum Blood-Bank to Looped peptides [1]: 1.3
Binding of Control serum Blood-bank to linear peptides [1]: 0.8
Binding of Control serum LUMC to linear peptides [1]: 0.9
Binding of Control serum LUMC to looped peptides [1]: 1.3
Binding of a rabbit serum to linear peptides of protein N of SARS-CoV Urbani (Rabbit serum linear peptides) [2]: 0.1
Binding of a rabbit serum to looped/cyclic peptides of protein N of SARS-CoV Urbani (Rabbit serum looped peptides) [2]: 0.4
Binding of antibody 03-018 to linear peptides of the N protein of SARS-CoV Urbani [3]: 0.1
Binding of antibody 03-018 to looped/cyclic peptides of the N protein of SARS-CoV Urbani [3]: 0.2

GTTLPKGFYAEGSRG
Binding of Control Serum Blood-Bank to Looped peptides [1]: 0.5
Binding of Control serum Blood-bank to linear peptides [1]: 0.6
Binding of Control serum LUMC to linear peptides [1]: 0.6
Binding of Control serum LUMC to looped peptides [1]: 0.6
Binding of a rabbit serum to linear peptides of protein N of SARS-CoV Urbani (Rabbit serum linear peptides) [2]: 0.2
Binding of a rabbit serum to looped/cyclic peptides of protein N of SARS-CoV Urbani (Rabbit serum looped peptides) [2]: 0.3
Binding of antibody 03-018 to linear peptides of the N protein of SARS-CoV Urbani [3]: 0.1
Binding of antibody 03-018 to looped/cyclic peptides of the N protein of SARS-CoV Urbani [3]: 0.2

KLDDKDPQFKDNVIL
Control Serum Blood-Bank Looped peptides [1]: 0.7
Control serum Blood-bank linear peptides [1]: 0.8
Control serum LUMC linear peptides [1]: 0.7
Control serum LUMC looped peptides [1]: 0.8
Binding of a rabbit serum to linear peptides of protein N of SARS-CoV Urbani (Rabbit serum linear peptides) [2]: 0.1
Binding of a rabbit serum to looped/cyclic peptides of protein N of SARS-CoV Urbani (Rabbit serum looped peptides) [2]: 0.2
Binding of antibody 03-018 to linear peptides of the N protein of SARS-CoV Urbani [3]: 0.1
Binding of antibody 03-018 to looped/cyclic peptides of the N protein of SARS-CoV Urbani [3]: 0.2

KPRQKRTATKQYNVT
Binding of Control Serum Blood-Bank to Looped peptides [1]: 0.4
Binding of Control serum Blood-bank to linear peptides [1]: 0.8
Binding of Control serum LUMC to linear peptides [1]: 0.7
Binding of Control serum LUMC to looped peptides [1]: 0.4
Binding of a rabbit serum to linear peptides of protein N of SARS-CoV Urbani (Rabbit serum linear peptides) [2]: 0.3
Binding of a rabbit serum to looped/cyclic peptides of protein N of SARS-CoV Urbani (Rabbit serum looped peptides) [2]: 0.0
Binding of antibody 03-018 to linear peptides of the N protein of SARS-CoV Urbani [3]: 0.1
Binding of antibody 03-018 to looped/cyclic peptides of the N protein of SARS-CoV Urbani [3]: 0.2

KRTATKQYNVTQAFG
Binding of Control Serum Blood-Bank to Looped peptides [1]: 0.6
Binding of Control serum Blood-bank to linear peptides [1]: 0.7
Binding of Control serum LUMC to linear peptides [1]: 0.8
Binding of Control serum LUMC to looped peptides [1]: 0.6
Recognition of the peptide by the rabbit serum [2]: recognized
Binding of antibody 03-018 to linear peptides of the N protein of SARS-CoV Urbani [3]: 0.1
Binding of antibody 03-018 to looped/cyclic peptides of the N protein of SARS-CoV Urbani [3]: 0.2

LQLPQGTTLPKGFYA
Binding of Control Serum Blood-Bank to Looped peptides [1]: 0.5
Binding of Control serum Blood-bank to linear peptides [1]: 1.0
Binding of Control serum LUMC to linear peptides [1]: 0.8
Binding of Control serum LUMC to looped peptides [1]: 0.5
Binding of a rabbit serum to linear peptides of protein N of SARS-CoV Urbani (Rabbit serum linear peptides) [2]: 0.2
Binding of a rabbit serum to looped/cyclic peptides of protein N of SARS-CoV Urbani (Rabbit serum looped peptides) [2]: 1.0
Binding of antibody 03-018 to linear peptides of the N protein of SARS-CoV Urbani [3]: 0.1
Binding of antibody 03-018 to looped/cyclic peptides of the N protein of SARS-CoV Urbani [3]: 0.2

MASGGGETALALLLL
Binding of Control Serum Blood-Bank to Looped peptides [1]: 0.7
Binding of Control serum Blood-bank to linear peptides [1]: 0.7
Binding of Control serum LUMC to linear peptides [1]: 0.6
Binding of Control serum LUMC to looped peptides [1]: 0.9
Binding of a rabbit serum to linear peptides of protein N of SARS-CoV Urbani (Rabbit serum linear peptides) [2]: 0.2
Binding of a rabbit serum to looped/cyclic peptides of protein N of SARS-CoV Urbani (Rabbit serum looped peptides) [2]: 1.1
Binding of antibody 03-018 to linear peptides of the N protein of SARS-CoV Urbani [3]: 0.1
Binding of antibody 03-018 to looped/cyclic peptides of the N protein of SARS-CoV Urbani [3]: 0.3

NAATVLQLPQGTTLP
Binding of Control Serum Blood-Bank to Looped peptides [1]: 0.6
Binding of Control serum Blood-bank to linear peptides [1]: 0.7
Binding of Control serum LUMC to linear peptides [1]: 0.5
Binding of Control serum LUMC to looped peptides [1]: 0.4
Binding of a rabbit serum to linear peptides of protein N of SARS-CoV Urbani (Rabbit serum linear peptides) [2]: 0.2
Binding of a rabbit serum to looped/cyclic peptides of protein N of SARS-CoV Urbani (Rabbit serum looped peptides) [2]: 0.0
Binding of antibody 03-018 to linear peptides of the N protein of SARS-CoV Urbani [3]: 0.1
Binding of antibody 03-018 to looped/cyclic peptides of the N protein of SARS-CoV Urbani [3]: 0.2

PARMASGGGETALAL
Binding of Control Serum Blood-Bank to Looped peptides [1]: 0.7
Binding of Control serum Blood-bank to linear peptides [1]: 1.0
Binding of Control serum LUMC to linear peptides [1]: 0.8
Binding of Control serum LUMC to looped peptides [1]: 0.9
Binding of a rabbit serum to linear peptides of protein N of SARS-CoV Urbani (Rabbit serum linear peptides) [2]: 0.2
Binding of a rabbit serum to looped/cyclic peptides of protein N of SARS-CoV Urbani (Rabbit serum looped peptides) [2]: 0.7
Binding of antibody 03-018 to linear peptides of the N protein of SARS-CoV Urbani [3]: 0.1
Binding of antibody 03-018 to looped/cyclic peptides of the N protein of SARS-CoV Urbani [3]: 0.3

PQGTTLPKGFYAEGS
Binding of Control Serum Blood-Bank to Looped peptides [1]: 0.6
Binding of Control serum Blood-bank to linear peptides [1]: 0.7
Binding of Control serum LUMC to linear peptides [1]: 0.6
Binding of Control serum LUMC to looped peptides [1]: 0.6
Binding of a rabbit serum to linear peptides of protein N of SARS-CoV Urbani (Rabbit serum linear peptides) [2]: 0.1
Binding of a rabbit serum to looped/cyclic peptides of protein N of SARS-CoV Urbani (Rabbit serum looped peptides) [2]: 0.5
Binding of antibody 03-018 to linear peptides of the N protein of SARS-CoV Urbani [3]: 0.1
Binding of antibody 03-018 to looped/cyclic peptides of the N protein of SARS-CoV Urbani [3]: 0.2

TPGSSRGNSPARMAS
Recognition of the peptide by the rabbit serum [2]: recognized
Binding of antibody 03-018 to linear peptides of the N protein of SARS-CoV Urbani [3]: 0.1
Binding of antibody 03-018 to looped/cyclic peptides of the N protein of SARS-CoV Urbani [3]: 0.3
Binding of serum 1a to linear peptide (PEPSCAN-ELISA) [4]: 0.3
Binding of serum 1a to looped/cyclic peptides of protein N of SARS-CoV Urbani [4]: 0.4
Binding of serum 1b to linear peptide (PEPSCAN-ELISA) [4]: 0.2
Binding of serum 1b to looped/cyclic peptides of protein N of SARS-CoV Urbani [4]: 0.2
Binding of serum 2 to linear peptide (PEPSCAN-ELISA) [4]: 0.3
Binding of serum 2 to looped/cyclic peptides of protein N of SARS-CoV Urbani [4]: 0.5
Binding of serum 6 to linear peptide (PEPSCAN-ELISA) [4]: 0.2
Binding of serum 6 to looped/cyclic peptides of protein N of SARS-CoV Urbani [4]: 0.4
Binding of serum 37 to linear peptide (PEPSCAN-ELISA) [4]: 0.8
Binding of serum 37 to looped/cyclic peptides of protein N of SARS-CoV Urbani [4]: 0.6
Binding of serum 62 to linear peptide (PEPSCAN-ELISA) [4]: 0.7
Binding of serum 62 to looped/cyclic peptides of protein N of SARS-CoV Urbani [4]: 0.6
Binding of serum London to linear peptide (PEPSCAN-ELISA) [4]: 0.5
Binding of serum London to looped/cyclic peptides of protein N of SARS-CoV Urbani [4]: 0.5
Binding of serum SARS-green to linear peptide (PEPSCAN-ELISA) [4]: 0.6
Binding of serum SARS-green to looped/cyclic peptides of protein N of SARS-CoV Urbani [4]: 0.4
Binding of serum SARS-yellow to linear peptide (PEPSCAN-ELISA) [4]: 0.8
Binding of serum SARS-yellow to looped/cyclic peptides of protein N of SARS-CoV Urbani [4]: 0.5
